“And” between values parts separate entries of the source, which are not always exact repeats. Identical values can stand only once. Inconclusive results and toxic doses are left out. How the source made its calls: active means survival T/C of 150% or more; inactive means T/C below 125% in these data.
System: P388 leukemia ip, CD2F1 mice, survival T/C
Assay: NCI In Vivo Anticancer Drug Screen. Data for tumor model P388 Leukemia (intraperitoneal) in CD2F1 (CDF1) mice
Details: endpoint: median survival time, higher = longer survival
Method in brief: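 Mice carrying the transplanted tumor received test compound or vehicle. Survival was recorded in each group, and the value is the treated-group measurement divided by that of the vehicle-treated control group.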

[1] = dose: 50.0 mg/kg/injection, schedule: Q01DX009 (ip), vehicle: saline with Tween-80
[2] = dose: 100.0 mg/kg/injection, schedule: Q01DX009 (ip), vehicle: saline with Tween-80
[3] = dose: 200.0 mg/kg/injection, schedule: Q01DX009 (ip), vehicle: saline with Tween-80
[4] = dose: 50.0 mg/kg/injection, schedule: Q04DX003 (ip), vehicle: saline
[5] = dose: 100.0 mg/kg/injection, schedule: Q04DX003 (ip), vehicle: saline
[6] = dose: 200.0 mg/kg/injection, schedule: Q04DX003 (ip), vehicle: saline
[7] = dose: 50.0 mg/kg/injection, schedule: Q01DX009 (ip), vehicle: saline
[8] = dose: 100.0 mg/kg/injection, schedule: Q01DX009 (ip), vehicle: saline
[9] = dose: 50.0 mg/kg/injection, schedule: Q01DX009 (ip), vehicle: Klucel (hydroxypropylcellulose) (HPC)
[10] = dose: 100.0 mg/kg/injection, schedule: Q01DX009 (ip), vehicle: Klucel (hydroxypropylcellulose) (HPC)
[11] = dose: 200.0 mg/kg/injection, schedule: Q01DX009 (ip), vehicle: Klucel (hydroxypropylcellulose) (HPC)
[12] = dose: 50.0 mg/kg/injection, schedule: Q01DX005 (ip), vehicle: saline with Tween-80

Measured: T/C

Fc1ccc(N/N=c2\nnc3ccc(F)cc3s2)cc1
inactive: dose: 100.0 mg/kg/injection, schedule: Q04DX002 (ip), vehicle: saline with Tween-80 102 % of control | dose: 200.0 mg/kg/injection, schedule: Q04DX002 (ip), vehicle: saline with Tween-80 95 % of control | dose: 400.0 mg/kg/injection, schedule: Q04DX002 (ip), vehicle: saline with Tween-80 94 % of control

O=C(O)/C=C/C(=O)NNc1nc2ccccc2s1
inactive: dose: 60.0 mg/kg/injection, schedule: Q01DX005 (ip), vehicle: Klucel (hydroxypropylcellulose) (HPC) 97 % of control | dose: 120.0 mg/kg/injection, schedule: Q01DX005 (ip), vehicle: Klucel (hydroxypropylcellulose) (HPC) 96 % of control | dose: 240.0 mg/kg/injection, schedule: Q01DX005 (ip), vehicle: Klucel (hydroxypropylcellulose) (HPC) 89 % of control

O=C(c1ccccc1)C1OC1c1ccccc1 (centres undefined)
inactive: [1] 104 % of control | [2] 105 % of control and 97 % of control | [3] 103 % of control and 114 % of control | dose: 400.0 mg/kg/injection, schedule: Q01DX009 (ip), vehicle: saline with Tween-80 109 % of control and 123 % of control | dose: 600.0 mg/kg/injection, schedule: Q01DX009 (ip), vehicle: saline with Tween-80 87 % of control

CC(C)C[C@H](O)C(=O)O
inactive: [4] 100 % of control | [5] 100 % of control | [6] 100 % of control

COCCCN=C(N)N
inactive: [4] 109 % of control | [5] 100 % of control | [6] 95 % of control

CN(C)c1nc(N(C)C)n2c(-c3ccccc3[N+](=O)[O-])nnc2n1
inactive: [1] 99 % of control | [2] 102 % of control | [3] 99 % of control

CCOC(=O)/C=C(\C)N1CCCCC1
inactive: [5] 100 % of control | [6] 100 % of control | dose: 400.0 mg/kg/injection, schedule: Q04DX003 (ip), vehicle: saline 100 % of control

CCNC(C)(C)C(SS)c1ccc(C(F)(F)F)cc1 (centres undefined)
inactive: dose: 12.5 mg/kg/injection, schedule: Q04DX003 (ip), vehicle: saline with Tween-80 100 % of control | dose: 25.0 mg/kg/injection, schedule: Q04DX003 (ip), vehicle: saline with Tween-80 110 % of control | dose: 50.0 mg/kg/injection, schedule: Q04DX003 (ip), vehicle: saline with Tween-80 110 % of control | dose: 100.0 mg/kg/injection, schedule: Q04DX003 (ip), vehicle: saline with Tween-80 100 % of control | dose: 400.0 mg/kg/injection, schedule: Q04DX003 (ip), vehicle: saline with Tween-80 109 % of control

COc1ccc(/C(C#N)=C\c2ccco2)cc1
inactive: [7] 111 % of control | [8] 110 % of control | dose: 200.0 mg/kg/injection, schedule: Q01DX009 (ip), vehicle: saline 101 % of control

CS/C(=C/c1ccc2ccccc2[n+]1C)N1CCCC1
inactive: dose: 0.1 mg/kg/injection, schedule: Q01DX005 (ip), vehicle: saline 103 % of control | dose: 0.2 mg/kg/injection, schedule: Q01DX005 (ip), vehicle: saline 99 % of control | dose: 0.4 mg/kg/injection, schedule: Q01DX005 (ip), vehicle: saline 100 % of control | dose: 0.78 mg/kg/injection, schedule: Q01DX005 (ip), vehicle: saline 116 % of control | dose: 1.56 mg/kg/injection, schedule: Q01DX005 (ip), vehicle: saline 111 % of control

C=Cc1cncc2c1CCOC2=O
inactive: dose: 3.75 mg/kg/injection, schedule: Q01DX005 (ip), vehicle: Klucel (hydroxypropylcellulose) (HPC) 86 % of control | dose: 7.5 mg/kg/injection, schedule: Q01DX005 (ip), vehicle: Klucel (hydroxypropylcellulose) (HPC) 93 % of control | dose: 30.0 mg/kg/injection, schedule: Q01DX005 (ip), vehicle: Klucel (hydroxypropylcellulose) (HPC) 86 % of control

CSc1nc(N)c(C(=O)NC2CCCCC2)s1
inactive: [9] 100 % of control | [10] 100 % of control | [11] 99 % of control

CCCCCCCCCCCCCC(=O)Nc1ncc([N+](=O)[O-])s1
inactive: [9] 94 % of control | [10] 94 % of control | [11] 100 % of control

CC1(C)CC(=O)C(=[N+]=[N-])C(=O)C1
inactive: dose: 7.5 mg/kg/injection, schedule: Q01DX005 (ip), vehicle: saline with Tween-80 105 % of control | dose: 15.0 mg/kg/injection, schedule: Q01DX005 (ip), vehicle: saline with Tween-80 105 % of control | dose: 30.0 mg/kg/injection, schedule: Q01DX005 (ip), vehicle: saline with Tween-80 102 % of control

CNCCc1c(C2C3C(C=C(C)CC3(C)C)c3c(CCNC)c4ccccc4n32)[nH]c2ccccc12 (centres undefined)
inactive: dose: 4.0 mg/kg/injection, schedule: Q01DX009 (ip), vehicle: saline 107 % of control | dose: 8.0 mg/kg/injection, schedule: Q01DX009 (ip), vehicle: saline 110 % of control | dose: 16.0 mg/kg/injection, schedule: Q01DX009 (ip), vehicle: saline 115 % of control | dose: 32.0 mg/kg/injection, schedule: Q01DX009 (ip), vehicle: saline 114 % of control

CCN(CC)C1CC(O[C@H]2C[C@](O)(C(C)=O)Cc3c(O)c4c(c(O)c32)C(=O)c2c(OC)cccc2C4=O)OC(C)C1O (some centres undefined)
active: dose: 4.0 mg/kg/injection, schedule: Q01DX009 (ip), vehicle: water 174 % of control and 183 % of control
inactive: dose: 0.25 mg/kg/injection, schedule: Q01DX009 (ip), vehicle: water 104 % of control | dose: 0.5 mg/kg/injection, schedule: Q01DX009 (ip), vehicle: water 114 % of control | dose: 6.0 mg/kg/injection, schedule: Q04DX003 (ip), vehicle: water 117 % of control | dose: 8.0 mg/kg/injection, schedule: Q01DX009 (ip), vehicle: water 100 % of control | dose: 20.0 mg/kg/injection, schedule: Q04DX003 (ip), vehicle: water 112 % of control | dose: 33.3 mg/kg/injection, schedule: Q04DX003 (ip), vehicle: water 96 % of control | dose: 48.0 mg/kg/injection, schedule: Q04DX003 (ip), vehicle: water 124 % of control | dose: 96.0 mg/kg/injection, schedule: Q04DX003 (ip), vehicle: water 93 % of control

OC1(C2NCCc3ccccc32)CCN(CCc2ccccc2)CC1 (centres undefined)
inactive: [9] 87 % of control | [10] 94 % of control

CCCCCCCCCCCC1=C(O)C(=O)C(Cl)=C(O)C1=O
inactive: dose: 12.5 mg/kg/injection, schedule: Q01DX005 (ip), vehicle: saline with Tween-80 98 % of control | dose: 25.0 mg/kg/injection, schedule: Q01DX005 (ip), vehicle: saline with Tween-80 97 % of control | [12] 102 % of control and 90 % of control

COc1cc(N)ccc1Nc1c2ccccc2nc2ccccc12
inactive: dose: 12.5 mg/kg/injection, schedule: Q04DX002 (ip), vehicle: distilled water + Tween-80 117 % of control
active: dose: 50.0 mg/kg/injection, schedule: Q04DX002 (ip), vehicle: distilled water + Tween-80 165 % of control | dose: 100.0 mg/kg/injection, schedule: Q04DX002 (ip), vehicle: distilled water + Tween-80 166 % of control and 185 % of control | dose: 200.0 mg/kg/injection, schedule: Q04DX002 (ip), vehicle: distilled water + Tween-80 194 % of control

S=c1nn[nH]n1-c1cccc2ccccc12
inactive: dose: 100.0 mg/kg/injection, schedule: Q04DX003 (ip), vehicle: saline sonified 90 % of control | dose: 200.0 mg/kg/injection, schedule: Q04DX003 (ip), vehicle: saline sonified 100 % of control | dose: 400.0 mg/kg/injection, schedule: Q04DX003 (ip), vehicle: saline sonified 100 % of control

Oc1ccc2ccccc2c1CN(Cc1c(O)ccc2ccccc12)C1CCCCC1
inactive: [12] 97 % of control | dose: 100.0 mg/kg/injection, schedule: Q01DX005 (ip), vehicle: saline with Tween-80 96 % of control | dose: 200.0 mg/kg/injection, schedule: Q01DX005 (ip), vehicle: saline with Tween-80 104 % of control

O=C(O)CBr
inactive: dose: 25.0 mg/kg/injection, schedule: Q01DX005 (ip), vehicle: other 110 % of control

Cc1nccc2cccc(CNC(C)C)c12
inactive: dose: 100.0 mg/kg/injection, schedule: Q01DX001 (ip), vehicle: saline 103 % of control | dose: 200.0 mg/kg/injection, schedule: Q01DX001 (ip), vehicle: saline 100 % of control

CC(=O)N(C)N=Nc1ccc(C)cc1
inactive: [7] 100 % of control and 121 % of control and 123 % of control | [8] 100 % of control and 118 % of control and 121 % of control

Fc1cccc(Cl)c1CSc1n[nH]c(C(F)(F)F)n1
inactive: dose: 60.0 mg/kg/injection, schedule: Q01DX005 (ip), vehicle: saline with Tween-80 102 % of control | dose: 120.0 mg/kg/injection, schedule: Q01DX005 (ip), vehicle: saline with Tween-80 100 % of control | dose: 240.0 mg/kg/injection, schedule: Q01DX005 (ip), vehicle: saline with Tween-80 111 % of control

Source: PubChem BioAssay AID330 (DTP/NCI, 2004)
